# How the values were obtained:
# [1] = tested on: Liver longevity gene expression signature; test: Compounds that shift gene expression in the direction of longevity (Table 6), liver
# Source text: (§1) The methods, assays, and systems described herein can be useful in a number of areas, including the discovery and validation of new targets for reducing rate of aging, extending lifespan, reducing incidence and delaying onset of disease and improving overall health of aging populations. Furthermore, the invention can facilitate the discovery and development of drugs, biologicals and treatment regimens based on the above that favorably intervene in the aging process. For example, the gene expression signatures described herein can be used to choose target gene products in a therapeutic protocol, to elaborate the biological function of the target gene product in the aging process, and to identify compounds that alleviate deterioration associated with aging by modulating the activity of target gene products. For example, several compounds that shift gene expression in the direction of longevity have been identified or validated using the assays or methods described herein (Table 6).
# (§2) In Table 6, several compounds that shift gene expression in the direction of longevity have been identified or validated.
# [2] = tested on: Kidney longevity gene expression signature; test: Compounds that shift gene expression in the direction of longevity (Table 6), kidney
# Source text: as §1, §2
# [3] = tested on: Brain longevity gene expression signature; test: Compounds that shift gene expression in the direction of longevity (Table 6), brain
# Source text: as §1, §2
# [4] = tested on: mice; details: elevated growth hormone treatment during development (Panici et al., 2010); cited from earlier work
Compound,Direction of lifespan associated with the compound's shift of gene expression (Increased lifespan / Decreased lifespan) [1],Direction of lifespan associated with the compound's shift of gene expression (Increased lifespan / Decreased lifespan) [3],other results
CCCCC/C=C/C=C1/C(=O)C=C[C@@H]1C/C=C\CCCC(=O)O [15Δ prostaglandin J2],Decreased,Decreased,Direction of lifespan associated with the compound's shift of gene expression (Increased lifespan / Decreased lifespan) [2]: Decreased
growth hormone,,,Effect on lifespan [4]: shortens lifespan
CO[C@H]1/C=C\C=C(/C)C(=O)NC2=CC(=O)C(NCCN(C)C)=C(C[C@@H](C)C[C@H](OC)[C@H](O)[C@@H](C)/C=C(\C)[C@@H]1OC(N)=O)C2=O [Alvespimycin],,Decreased,
CN(C)CCOC(C)(c1ccccc1)c1ccccn1 (centres unmarked) [Doxylamine],Decreased,,
O[C@H]1[C@H]2c3cc4c(cc3CN3CCC(=C[C@@H]1O)[C@H]23)OCO4 [Lycorine],,,Direction of lifespan associated with the compound's shift of gene expression (Increased lifespan / Decreased lifespan) [2]: Decreased
Oc1ccc(C=Cc2cc(O)cc(O)c2)cc1 [Resveratrol],Increased,,
NC12CC3CC(CC(C3)C1)C2 [Amantadine],,Increased,
C[C@@H]1C[C@H]2O[C@@H]2/C=C\C=C\C(=O)Cc2c(Cl)c(O)cc(O)c2C(=O)O1 [Monorden],Decreased,,
CCc1c2c(nc3ccc(OC(=O)N4CCC(N5CCCCC5)CC4)cc13)-c1cc3c(c(=O)n1C2)COC(=O)[C@]3(O)CC [Irinotecan],,Increased,Direction of lifespan associated with the compound's shift of gene expression (Increased lifespan / Decreased lifespan) [2]: Increased
Artemizole,Increased,,
C[C@H]1O[C@@H](O[C@H]2CC[C@]3(C=O)[C@H]4CC[C@]5(C)[C@@H](C6=CC(=O)OC6)CC[C@]5(O)[C@@H]4CC[C@]3(O)C2)C[C@H](O)[C@@H]1O [Helveticoside],Increased,,

# From patent US11180811B2, “Molecular signatures of conditions associated with longevity” (The Brigham and Women's Hospital, Inc., priority 2014, dated 2021)
